Read-outs that look alike come from different tables or passages of the source.
Legend:
[1] = system: CCRF-CEM; experiment: Cytotoxicity, inhibition of cell proliferation to 50% of untreated controls; assay type: cell-based, human; details: read-out: Cytotoxicity as IC50, CCRF-CEM
Text: (§1) In contrast to the previously reported 2'-substituted 9-β-D-arabinofuranosyl-2-haloadenines, the 2'-fluoro compounds were quite cytotoxic to three human cell lines, H.Ep.-2, CCRF-CEM, and K562, and the murine lukemia line, L1210.
(§2) Obviously, to be useful as anticancer agents, the nucleosides of the present invention must show the ability to kill cells in vitro. […] One cell line (L1210) is a murine lukemia, whereas the other three are human neoplasms. […] Many people today emphasize the importance of toxicity to human cell lines.

[2] = system: H.Ep.-2; experiment: as above; assay type: cell-based, human
Text: as §1, §2

[3] = system: K562; experiment: as above; assay type: cell-based, human
Text: as §1, §2

[4] = system: L1210; experiment: as above; assay type: cell-based; details: Mus musculus; L1210 murine leukemia line; read-out: Cytotoxicity as IC50, L1210
Text: as §1, §2

[5] = molecular target: E. coli purine nucleoside phosphorylase (Escherichia coli, UniProt P0ABP8); experiment: Phosphorolysis of nucleosides by purine nucleoside phosphorylase; assay type: biochemical; details: 0.5 mM nucleoside, 50 mM pH 8.0 phosphate buffer, HPLC, incubation 30-240 min, read-out: % Cleavage
Sequence of E. coli purine nucleoside phosphorylase (P0ABP8 2-239): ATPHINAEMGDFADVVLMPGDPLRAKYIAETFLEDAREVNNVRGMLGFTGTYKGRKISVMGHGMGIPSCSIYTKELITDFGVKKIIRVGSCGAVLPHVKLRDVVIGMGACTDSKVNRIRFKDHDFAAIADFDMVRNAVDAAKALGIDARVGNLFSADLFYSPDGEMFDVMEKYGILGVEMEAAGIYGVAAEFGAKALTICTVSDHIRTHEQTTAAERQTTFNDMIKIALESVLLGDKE
Text: Subsequently, the phosphorolysis of these compounds were compared by E. coli purine nucleoside phosphorylase. The […] and 2'-deoxyribonucleosides are rapidly cleaved by this enzyme, whereas the […] nucleosides substituted at 2' by Cl, N3, or NH2 are almost completely resistant. The 2'-fluoro compounds are less resistant to cleavage, being cleaved at roughly one-third the rate of the […] and 2'-deoxynucleosides. This reduction in cleavage rate may be acceptable for pharmaceutical purposes as phosphorylation in mammalian cells is quite rapid.
More specifically, an enzyme reaction mixture consisting of 0.5 mM nucleoside substrate, 50 mM pH 8.0 phosphate buffer and purine nucleoside phosphorylase in a final volume of 1.0 mL was allowed to incubate for 30, 60, 120, 180 and 240 minutes, and the amounts of nucleoside and substrate remaining were determined by HPLC.

[6] = system: P388 leukemia; experiment: In vivo activity vs ip P388 leukemia, ip administration; parameters: species or system CD2F1 mice
Text: This, coupled with the lower toxicity of the cleavage product, 2-chloroadenine, relative to 2-fluoroadenine, make this compound a preferred compound of the present invention. The following Table III provides a summary of the in vivo activity of the 9-(2-fluoro-2-deoxy-β-D-arabinofuranosyl)-2-haloadenines vs P388 leukemia cell line in which CD2F1 mice were implanted ip with 10^6 P388 leukemia cells on day 0 in accordance with the protocol of Waud et al [Cancer Res. 50:3232 (1990)].
In the above table, the optimal dose refers to mg/kg/dose (≤LD50); ILS refers to the increase in life span; and the log change refers to the change in viable tumor cell population at the end of therapy compared to that at the start of therapy, based on the median day of death among the animals that died. The data in this table is presented in accordance with the National Cancer Institute activity criteria for drug testing in which an ILS of 20-74% is considered moderate activity, and an ILS of 75% or more is considered good activity.

[7] = molecular target: T1, ribonucleotide reductase (Homo sapiens, UniProt P23921); details: cited from earlier work; for inhibition of ribonucleotide reductase (in words): 5'-triphosphate of the nucleoside analogue
T1 sequence (P23921 1-792): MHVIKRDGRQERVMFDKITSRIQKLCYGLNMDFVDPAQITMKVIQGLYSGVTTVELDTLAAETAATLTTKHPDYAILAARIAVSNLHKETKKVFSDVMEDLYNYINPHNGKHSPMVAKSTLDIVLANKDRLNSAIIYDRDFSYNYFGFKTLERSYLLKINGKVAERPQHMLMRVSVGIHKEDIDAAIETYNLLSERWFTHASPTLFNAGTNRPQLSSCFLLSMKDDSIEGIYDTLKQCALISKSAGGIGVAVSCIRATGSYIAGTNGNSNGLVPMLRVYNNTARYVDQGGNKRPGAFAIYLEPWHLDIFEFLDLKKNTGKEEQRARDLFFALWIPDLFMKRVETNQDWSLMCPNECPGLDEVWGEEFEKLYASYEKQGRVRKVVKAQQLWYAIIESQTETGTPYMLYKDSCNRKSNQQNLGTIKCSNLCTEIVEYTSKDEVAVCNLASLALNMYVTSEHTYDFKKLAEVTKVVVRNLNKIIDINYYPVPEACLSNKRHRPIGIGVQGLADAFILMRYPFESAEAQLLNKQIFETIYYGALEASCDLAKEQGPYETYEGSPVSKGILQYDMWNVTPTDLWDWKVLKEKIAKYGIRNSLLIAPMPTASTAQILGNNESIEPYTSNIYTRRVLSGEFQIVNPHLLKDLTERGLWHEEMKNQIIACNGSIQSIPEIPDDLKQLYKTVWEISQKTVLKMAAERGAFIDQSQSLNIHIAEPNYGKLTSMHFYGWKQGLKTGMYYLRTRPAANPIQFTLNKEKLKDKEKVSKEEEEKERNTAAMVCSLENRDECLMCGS

[8] = system: P388 leukemia; experiment: Antitumor activity against ip P388 leukemia, oral administration; assay type: in vivo, mice; details: oral 67 mg/kg/dose
Protocol: In a similar test, compound 3d was administered orally and evaluated for antitumor activity against ip P388 leukemia cells. As the data in Table III indicates, the optimal regimen for the compound, administered ip, is in divided doses five on days 1, 5, and 9, a similar schedule was selected for the oral administration of this compound. In this set of experiments, an oral dosage of 67 mg/kg/dose, given q 6 h×4 on days 1, 5, and 9, effected a reduction in tumor burden of 1.7 log10 units, a figure which is approximately 2.5 log10 units less that that obtained in studies using ip drug administration.

[9] = system: K562 cells; details: cited from earlier work
[10] = relative to 9-β-D-arabinofuranosyl-2-fluoroadenine; cited from earlier work
[11] = HEp-2, H.Ep.-2 human cell line, read-out: Cytotoxicity as IC50, H.Ep.-2
[12] = K562 human cell line, read-out: Cytotoxicity as IC50, K562
[13] = 25 mg/kg/dose ip, q 3 h × 8 (Days 1, 5, 9)
[14] = 30 mg/kg/dose ip, q 3 h × 8 (Days 1, 5, 9)
[15] = 50 mg/kg/dose ip, q 3 h × 8 (Days 1, 5, 9)
[16] = 20 mg/kg/dose ip, q 3 h × 8 (Days 1, 5, 9)

## Nc1nc(F)nc2c1ncn2[C@@H]1O[C@H](CO)[C@@H](O)[C@@H]1F [compound 3g, 2-Fluoro-9-(2-deoxy-2-fluoro-β-D-arabinofuranosyl)-9H-purin-6-amine]
[1]; CCRF-CEM human cell line
  IC50: 140 nM
[2]; [11]
  IC50: 340 nM
[3]; [12]
  IC50: 300 nM
[4]
  IC50: 380 nM
[5]
  metabolised at 500 µM: 10%
[6]; [13]
  Log10 change in viable tumor cell population: -0.1
  Median % ILS (dying mice only): +81%
  Tumor-free Survivors: 0/6
[6]; 100 mg/kg/dose ip, qd 1-5
  Log10 change in viable tumor cell population: -1.8
  Median % ILS (dying mice only): +63%
  Tumor-free Survivors: 0/3

## Nc1nc(Br)nc2c1ncn2[C@@H]1O[C@H](CO)[C@@H](O)[C@@H]1F [compound 3b, 2-Bromo-9-(2-deoxy-2-fluoro-β-D-arabinofuranosyl)-9H-purin-6-amine]
[1]; CCRF-CEM human cell line
  IC50: 20 nM
[2]; [11]
  IC50: 220 nM
[3]; [12]
  IC50: 50 nM
[4]
  IC50: 260 nM
[5]
  metabolised at 500 µM: 45%
[6]; [14]
  Log10 change in viable tumor cell population: -1.0
  Median % ILS (dying mice only): +100%
  Tumor-free Survivors: 0/6
[6]; [15]
  Log10 change in viable tumor cell population: +1.6
  Median % ILS (dying mice only): +41%
  Tumor-free Survivors: 0/6
[6]; 200 mg/kg/dose ip, qd 1-5
  Log10 change in viable tumor cell population: +0.1
  Median % ILS (dying mice only): +33%
  Tumor-free Survivors: 0/6

## Nc1nc(F)nc2c1ncn2[C@H]1C[C@H](O)[C@@H](CO)O1 [Y = F, X = H, 2-fluoro-2'-deoxyadenosine]
[1]; CCRF-CEM human cell line
  IC50: 200 nM
[2]; [11]
  IC50: 200 nM
[4]
  IC50: 900 nM
[5]
  metabolised at 500 µM: > 99%

## Nc1nc(F)nc2c1ncn2[C@@H]1O[C@H](CO)[C@@H](O)[C@@H]1O [Y = F, X = OH, 2-fluoro-9-β-D-arabinofuranosyladenine, reference compound]
[1]; Homo sapiens, CCRF-CEM
  IC50: 400 nM
[2]; Homo sapiens, HEp-2, read-out: Cytotoxicity as IC50, H.Ep.-2
  IC50: 9000 nM
[3]; Homo sapiens, K562, read-out: Cytotoxicity as IC50, K562
  IC50: 150 nM
[5]
  metabolised at 500 µM: 99%

## Nc1nc(Cl)nc2c1ncn2[C@@H]1O[C@H](CO)[C@@H](O)[C@@H]1O [Y = Cl, X = OH]
[1]; CCRF-CEM human cell line
  IC50: 10000 nM
[2]; [11]
  IC50: 3000 nM
[4]
  IC50: < 3000 nM

## Nc1nc(Cl)nc2c1ncn2[C@@H]1O[C@H](COP(=O)(O)OP(=O)(O)OP(=O)(O)O)[C@@H](O)[C@@H]1F [2-chloro-9-(2-deoxy-2-fluoro-β-D-arabinofuranosyl)adenine 5'triphosphate]
[7]
  inhibition of ribonucleotide reductase (in words): the same as that seen with 2-chloro-2'-deoxyadenosine 5'-triphosphate

## Nc1nc(Cl)nc2c1ncn2[C@@H]1O[C@H](CO)[C@@H](O)[C@@H]1F [compound 3d, 2-Chloro-9-(2-deoxy-2-fluoro-B-D-arabinofuranosyl)-2,0 9H-purin-6-amine]
[1]; CCRF-CEM human cell line
  IC50: 50 nM
[2]; [11]
  IC50: 12 nM
[3]; [12]
  IC50: 3 nM
[4]
  IC50: 230 nM
[5]
  metabolised at 500 µM: 39%
[6]; [16]
  Log10 change in viable tumor cell population: -6.6
  Median % ILS (dying mice only): +220%
  Tumor-free Survivors: 1/6
[6]; [13]
  Log10 change in viable tumor cell population: -2.8
  Median % ILS (dying mice only): +118%
  Tumor-free Survivors: 0/5
[6]; 100 mg/kg/dose ip, qd 1-5
  Log10 change in viable tumor cell population: -0.3
  Median % ILS (dying mice only): +38%
  Tumor-free Survivors: 0/5
[6]; 200 mg/kg/dose ip, qd 1-5
  Log10 change in viable tumor cell population: -1.6
  Median % ILS (dying mice only): +59%
  Tumor-free Survivors: 0/3
[8]; q 6 h×4 on days 1, 5, and 9
  reduction in tumor burden: 1.7 log10 units
[8]; q 6 h×4 on days 1, 5, and 9, compared with ip
  reduction in tumor burden, shortfall versus ip drug administration: approximately 2.5 log10 units
[9]
  inhibition of DNA synthesis: inhibits DNA synthesis
[10]
  solubility (in words): greater solubility

## Nc1nc(Cl)nc2c1ncn2[C@H]1C[C@H](O)[C@@H](CO)O1 [Y = Cl, X = H, 2-chloro-2'-deoxyadenosine]
[1]; CCRF-CEM human cell line
  IC50: 3 nM
[2]; [11]
  IC50: 30 nM
[4]
  IC50: 70 nM
[5]
  metabolised at 500 µM: > 99%

## Nc1nc(Br)nc2c1ncn2[C@@H]1O[C@H](CO)[C@@H](O)[C@@H]1O [Y = Br, X = OH]
[2]; [11]
  IC50: 4000 nM
[4]
  IC50: 3000 nM

## Nc1nc(F)nc2c1ncn2[C@@H]1O[C@H](COP(=O)(O)OP(=O)(O)OP(=O)(O)O)[C@@H](O)[C@@H]1O [9-β-D-arabinofuranosyl-2-fluoroadenine 5'triphosphate]
[7]
  inhibition of ribonucleotide reductase (in words): much less potent inhibitor
[7]; ratio of concentrations required
  concentration inhibiting ribonucleotide reductase relative to 2-chloro-9-(2-deoxy-2-fluoro-β-D-arabinofuranosyl)adenine 5' triphosphate: 10 fold

## Nc1nc(Br)nc2c1ncn2[C@H]1C[C@H](O)[C@@H](CO)O1 [Y = Br, X = H]
[1]; CCRF-CEM human cell line
  IC50: 20 nM
[2]; [11]
  IC50: 20 nM
[4]
  IC50: 900 nM

— US5661136A, “2-halo-2'-fluoro ARA adenosines as antinoplastic agents” (priority 1994, dated 1997)
